For 28 compounds, IC50 results are on record in PMC7470115, “Design, synthesis and biological evaluation of novel tetrahydrothieno [2,3-c]pyridine substitued benzoyl thiourea derivatives as PAK1 inhibitors in triple negative breast cancer” (Journal of Enzyme Inhibition and Medicinal Chemistry, 2020).

PAK1, sequence (Q13153 whole entry): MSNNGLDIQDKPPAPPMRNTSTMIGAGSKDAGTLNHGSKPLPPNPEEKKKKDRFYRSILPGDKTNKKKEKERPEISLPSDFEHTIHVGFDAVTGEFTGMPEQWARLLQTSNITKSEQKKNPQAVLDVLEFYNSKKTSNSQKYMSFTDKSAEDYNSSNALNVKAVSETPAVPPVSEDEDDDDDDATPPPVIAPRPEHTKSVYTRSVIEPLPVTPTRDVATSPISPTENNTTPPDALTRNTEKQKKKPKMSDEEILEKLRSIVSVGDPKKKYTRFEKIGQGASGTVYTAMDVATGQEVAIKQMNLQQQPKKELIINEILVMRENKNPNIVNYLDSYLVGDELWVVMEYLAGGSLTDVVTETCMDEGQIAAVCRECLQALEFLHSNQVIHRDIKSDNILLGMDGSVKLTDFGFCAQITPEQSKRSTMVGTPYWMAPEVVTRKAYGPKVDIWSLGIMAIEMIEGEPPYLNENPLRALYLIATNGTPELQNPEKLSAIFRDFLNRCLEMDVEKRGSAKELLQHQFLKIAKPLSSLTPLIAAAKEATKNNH

For this test, the target named is PAK1 (Homo sapiens, UniProt Q13153). As to the kind of experiment: PAK1 enzymatic assay (Kinase-Glo Plus / ADP-Glo luminescence). The format is biochemical. The settings on record: tested in triplicate, mean ± SD; 50 µM ATP; read-out: Kinase inhibitory activity (IC50, μM) PAK1. Here is the method:
These assays were carried out as described previously. All of the enzymatic reactions were conducted at 30 °C for 40 min. The 50 µl reaction mixture contains 40 mM Tris, pH 7.4, 10 mM MgCl2, 0.1 mg/ml BSA, 1 mM DTT, 50 µM ATP, 0.2 μg/ml PAK1 and 100 uM lipid substrate. The compounds were diluted in 10% DMSO and 5 µl of the dilution was added to a 50 µl reaction so that the final concentration of DMSO is 1% in all of the reactions. The assay was performed using the Kinase-Glo Plus luminescence kinase assay kit and ADP-Glo Plus luminescence kinase assay kit. It measures kinase activity by quantitating the amount of ATP remaining in solution following a kinase reaction. The luminescent signal from the assay is correlated with the amount of ATP present and is inversely correlated with the amount of kinase activity. The IC50 values were calculated using nonlinear regression with normalised dose − response fit using Prism GraphPad software.
For orientation: In Kinase-Glo more light means more ATP remaining.
Take `Cc1cccc(C(=O)NC(=S)Nc2sc3c(c2C(N)=O)CCN(C(=O)OC(C)(C)C)C3)c1` [Compound 5d, Tert-butyl-3-carbamoyl-2–(3-(3-methylbenzoyl)thioureido)-4,7-dihydrothieno[2,3-c]pyridine-6(5H)-carboxylate]: the IC50 came to 4.32 ± 0.51 µM.
Turning to `NC(=O)c1c(NC(=S)NC(=O)c2cccc(C(F)(F)F)c2)sc2c1CCN(C(=O)C1CCC1)C2` [Compound 7k, 6-(cyclobutanecarbonyl)-2–(3-(3-(trifluoromethyl)benzoyl)thioureido)-4,5,6,7-tetrahydrothieno[2,3-c]pyridine-3-carboxamide], the IC50 worked out at 0.68 ± 0.07 µM.
Take `CC(C)(C)OC(=O)N1CCc2c(sc(NC(=S)NC(=O)C3CCCCC3)c2C(N)=O)C1` [Compound 5p, Tert-butyl-3-carbamoyl-2–(3-(cyclohexanecarbonyl)thioureido)-4,7-dihydrothieno[2,3-c]pyridine-6(5H)-carboxylate]: the IC50 turned out to be 19.3 ± 1.85 µM.
Turning to `NC(=O)c1c(NC(=S)NC(=O)c2cccc(C(F)(F)F)c2)sc2c1CCN(C(=O)c1ccc(Cl)cc1)C2` [Compound 7b, 6–(4-chlorobenzoyl)-2–(3-(3-(trifluoromethyl)benzoyl)thioureido)-4,5,6,7-tetrahydrothieno[2,3-c]pyridine-3-carboxamide], the IC50 amounted to 13.2 ± 1.39 µM.
In the case of `CC(C)(C)OC(=O)N1CCc2c(sc(NC(=S)NC(=O)c3cccc(Cl)c3)c2C(N)=O)C1` [Compound 5l, Tert-butyl-3-carbamoyl-2–(3-(3-chlorobenzoyl)thioureido)-4,7-dihydrothieno[2,3-c]pyridine-6(5H)-carboxylate], the IC50 worked out at 5.15 ± 0.54 µM.
Turning to `NC(=O)c1c(NC(=S)NC(=O)c2cccc(C(F)(F)F)c2)sc2c1CCN(C(=O)CCCl)C2` [Compound 7g, 6–(3-chloropropanoyl)-2–(3-(3-(trifluoromethyl)benzoyl)thioureido)-4,5,6,7-tetrahydrothieno[2,3-c]pyridine-3-carboxamide], the IC50 amounted to 5.75 ± 0.63 µM.
Consider `COc1ccc(C(=O)NC(=S)Nc2sc3c(c2C(N)=O)CCN(C(=O)OC(C)(C)C)C3)cc1` [Compound 5f, Tert-butyl-3-carbamoyl-2–(3-(4-methoxybenzoyl)thioureido)-4,7-dihydrothieno[2,3-c]pyridine-6(5H)-carboxylate], for which the IC50 came to 16.4 ± 1.78 µM.
The figure for `CC(C)(C)OC(=O)N1CCc2c(sc(NC(=S)NC(=O)Cc3cccs3)c2C(N)=O)C1` [Compound 5q, Tert-butyl-3-carbamoyl-2–(3-(2-(thiophen-2-yl)acetyl)thioureido)-4,7-dihydrothieno[2,3-c]pyridine-6(5H)-carboxylate] is 15.6 ± 1.64 µM; for `CC(C)CC(=O)N1CCc2c(sc(NC(=S)NC(=O)c3cccc(C(F)(F)F)c3)c2C(N)=O)C1` [Compound 7f, 6–(3-methylbutanoyl)-2–(3-(3-(trifluoromethyl)benzoyl)thioureido)-4,5,6,7-tetrahydrothieno[2,3-c]pyridine-3-carboxamide] it is 3.87 ± 0.35 µM; for `CC(C)C(=O)N1CCc2c(sc(NC(=S)NC(=O)c3cccc(C(F)(F)F)c3)c2C(N)=O)C1` [Compound 7e, 6-isobutyryl-2–(3-(3-(trifluoromethyl)benzoyl)thioureido)-4,5,6,7-tetrahydrothieno[2,3-c]pyridine-3-carboxamide] it is 3.08 ± 0.29 µM.
Regarding `Cc1cc(C)c(C(=O)NC(=S)Nc2sc3c(c2C(N)=O)CCN(C(=O)OC(C)(C)C)C3)c(C)c1` [Compound 5e, Tert-butyl-3-carbamoyl-2–(3-(2,4,6-trimethylbenzoyl)thioureido)-4,7-dihydrothieno[2,3-c]pyridine-6(5H)-carboxylate], the IC50 amounted to 11.2 ± 1.01 µM.
Turning to `C/C=C/C(=O)N1CCc2c(sc(NC(=S)NC(=O)c3cccc(C(F)(F)F)c3)c2C(N)=O)C1` [Compound 7h, (E)-6-(but-2-enoyl)-2–(3-(3-(trifluoromethyl)benzoyl)thioureido)-4,5,6,7-tetrahydrothieno[2,3-c]pyridine-3-carboxamide], the IC50 turned out to be 4.14 ± 0.51 µM.
Regarding `CC(C)(C)OC(=O)N1CCc2c(sc(NC(=S)NC(=O)c3ccccc3F)c2C(N)=O)C1` [Compound 5i, Tert-butyl-3-carbamoyl-2–(3-(2-fluorobenzoyl)thioureido)-4,7-dihydrothieno[2,3-c]pyridine-6(5H)-carboxylate], the IC50 worked out at 7.82 ± 0.71 µM.
Consider `CC(C)(C)OC(=O)N1CCc2c(sc(NC(=S)NC(=O)c3ccc(F)cc3)c2C(N)=O)C1` [Compound 5h, Tert-butyl-3-carbamoyl-2–(3-(4-fluorobenzoyl)thioureido)-4,7-dihydrothieno[2,3-c]pyridine-6(5H)-carboxylate], for which the IC50 stood at 5.33 ± 0.65 µM.
For `CC(C)(C)OC(=O)N1CCc2c(sc(NC(=S)NC(=O)c3cccc(Cl)c3Cl)c2C(N)=O)C1` [Compound 5o, Tert-butyl-3-carbamoyl-2–(3-(2,3-dichlorobenzoyl)thioureido)-4,7-dihydrothieno[2,3-c]pyridine-6(5H)-carboxylate], the IC50 is 7.43 ± 0.81 µM.
`CC(C)(C)OC(=O)N1CCc2c(sc(NC(=S)NC(=O)c3ccccc3)c2C(N)=O)C1` [Compound 5a, Tert-butyl-2–(3-benzoylthioureido)-3-carbamoyl-4,7-dihydrothieno[2,3-c]pyridine-6(5H)-carboxylate]: the IC50 came to 7.64 ± 0.72 µM.
In the case of `CC(C)(C)OC(=O)N1CCc2c(sc(NC(=S)NC(=O)c3ccc(Br)cc3)c2C(N)=O)C1` [Compound 5g, Tert-butyl-2–(3-(4-bromobenzoyl)thioureido)-3-carbamoyl-4,7-dihydrothieno[2,3-c]pyridine-6(5H)-carboxylate], the IC50 was found to be 9.35 ± 0.97 µM.
`Cc1ccc(C(=O)NC(=S)Nc2sc3c(c2C(N)=O)CCN(C(=O)OC(C)(C)C)C3)cc1` [Compound 5b, Tert-butyl-3-carbamoyl-2–(3-(4-methylbenzoyl)thioureido)-4,7-dihydrothieno[2,3-c]pyridine-6(5H)-carboxylate]: the IC50 worked out at 7.28 ± 0.78 µM.
On to `Cc1ccccc1C(=O)N1CCc2c(sc(NC(=S)NC(=O)c3cccc(C(F)(F)F)c3)c2C(N)=O)C1` [Compound 7a, 6–(2-methylbenzoyl)-2–(3-(3-(trifluoromethyl)benzoyl)thioureido)-4,5,6,7-tetrahydrothieno[2,3-c]pyridine-3-carboxamide], for which the IC50 is 10.2 ± 1.13 µM.
The figure for `CC(C)(C)OC(=O)N1CCc2c(sc(NC(=S)NC(=O)c3ccc(Cl)cc3)c2C(N)=O)C1` [Compound 5j, Tert-butyl-3-carbamoyl-2–(3-(4-chlorobenzoyl)thioureido)-4,7-dihydrothieno[2,3-c]pyridine-6(5H)-carboxylate] is 9.12 ± 0.95 µM; for `Cc1ccccc1C(=O)NC(=S)Nc1sc2c(c1C(N)=O)CCN(C(=O)OC(C)(C)C)C2` [Compound 5c, Tert-butyl-3-carbamoyl-2–(3-(2-methylbenzoyl)thioureido)-4,7-dihydrothieno[2,3-c]pyridine-6(5H)-carboxylate] it is 6.21 ± 0.69 µM.
As to `NC(=O)c1c(NC(=S)NC(=O)c2cccc(C(F)(F)F)c2)sc2c1CCN(C(=O)C1CCCC1)C2` [Compound 7l, 6-(cyclopentanecarbonyl)-2–(3-(3-(trifluoromethyl)benzoyl)thioureido)-4,5,6,7-tetrahydrothieno[2,3-c]pyridine-3-carboxamide], the IC50 is 1.09 ± 0.09 µM.
With `NC(=O)c1c(NC(=S)NC(=O)c2cccc(C(F)(F)F)c2)sc2c1CCN(C(=O)C1CCOCC1)C2` [Compound 7n, 6-(tetrahydro-2H-pyran-4-carbonyl)-2–(3-(3-(trifluoromethyl)benzoyl)thioureido)-4,5,6,7-tetrahydrothieno[2,3-c]pyridine-3-carboxamide], the IC50 was 4.87 ± 0.65 µM.
For `CC(C)(C)OC(=O)N1CCc2c(sc(NC(=S)NC(=O)c3cccc(C(F)(F)F)c3)c2C(N)=O)C1` [Compound 5m, Tert-butyl-3-carbamoyl-2–(3-(3-(trifluoromethyl)benzoyl)thioureido)-4,7-dihydrothieno[2,3-c]pyridine-6(5H)-carboxylate], the IC50 came to 2.02 ± 0.27 µM.
The value for `CC(C)(C)OC(=O)N1CCc2c(sc(NC(=S)NC(=O)c3ccc(C(F)(F)F)cc3)c2C(N)=O)C1` [Compound 5n, Tert-butyl-3-carbamoyl-2–(3-(4-(trifluoromethyl)benzoyl)thioureido)-4,7-dihydrothieno[2,3-c]pyridine-6(5H)-carboxylate] was 12.1 ± 1.35 µM.
For the compound `NC(=O)c1c(NC(=S)NC(=O)c2cccc(C(F)(F)F)c2)sc2c1CCN(C(=O)C1CCCCC1)C2` [Compound 7m, 6-(cyclohexanecarbonyl)-2–(3-(3-(trifluoromethyl)benzoyl)thioureido)-4,5,6,7-tetrahydrothieno[2,3-c]pyridine-3-carboxamide], the IC50 worked out at 4.55 ± 0.51 µM.
In the case of `C=C(C)C(=O)N1CCc2c(sc(NC(=S)NC(=O)c3cccc(C(F)(F)F)c3)c2C(N)=O)C1` [Compound 7i, 6-methacryloyl-2–(3-(3-(trifluoromethyl)benzoyl)thioureido)-4,5,6,7-tetrahydrothieno[2,3-c]pyridine-3-carboxamide], the IC50 was determined as 3.42 ± 0.33 µM.
The value for `CC(C)(C)OC(=O)N1CCc2c(sc(NC(=S)NC(=O)c3ccccc3Cl)c2C(N)=O)C1` [Compound 5k, Tert-butyl-3-carbamoyl-2–(3-(2-chlorobenzoyl)thioureido)-4,7-dihydrothieno[2,3-c]pyridine-6(5H)-carboxylate] was 8.65 ± 0.93 µM.

In general, IC50 refers to the point on the concentration scale where inhibition reaches its midpoint.
